Data from patent US20230089247A1, “NOVEL COMPOUNDS SUITABLE FOR THE TREATMENT OF DYSLIPIDEMIA” (ZYDUS LIFESCIENCES LIMITED, priority 2019, published 2023).

Target: PCSK9 (Homo sapiens, UniProt Q8NBP7)
Assay: BODIPY-LDL uptake assay in HepG2 cells
Assay type: cell-based
Conditions: 5 μg/ml PCSK9, BODIPY-LDL
Procedure: BODIPY-LDL Uptake Assay in HepG2 Cells.
An established assay for PCSK9 inhibition features uptake of fluorescently labeled LDL nanoparticles (BODIPY-LDL) by hepatocytes and uptake of the BODIPY-containing particles is maximized in the absence of PCSK9.
In the LDL uptake assay, HepG2 cells were seeded at a density of 6×10^4 cells/well in a 96-well plate. After 24 h, the test compounds at various concentrations were pre-incubated with 5 μg/ml PCSK9 in 0.2% DMSO for 60 min prior to the addition on to the cells. After 16 h the medium was removed and 1 μg/ml BODIPY-LDL (Invitrogen) in serum free media was added and incubated for 5 h. Then the cells were washed twice with 0.25% BSA in PBS. Then the fluorescence of the cells in PBS was measured using TECAN multimode reader (Excitation: 485 nm and Emission: 520 nm). The readings were taken in triplicate and the final values were normalized with the protein concentration from respective wells. The wells without test compound containing external PCSK9 is considered as zero uptake and the one without PCSK9 was considered as 100% uptake. The percentage increase in LDL uptake for the test compounds were calculated using these values.

PCSK9, sequence (Q8NBP7 153-692): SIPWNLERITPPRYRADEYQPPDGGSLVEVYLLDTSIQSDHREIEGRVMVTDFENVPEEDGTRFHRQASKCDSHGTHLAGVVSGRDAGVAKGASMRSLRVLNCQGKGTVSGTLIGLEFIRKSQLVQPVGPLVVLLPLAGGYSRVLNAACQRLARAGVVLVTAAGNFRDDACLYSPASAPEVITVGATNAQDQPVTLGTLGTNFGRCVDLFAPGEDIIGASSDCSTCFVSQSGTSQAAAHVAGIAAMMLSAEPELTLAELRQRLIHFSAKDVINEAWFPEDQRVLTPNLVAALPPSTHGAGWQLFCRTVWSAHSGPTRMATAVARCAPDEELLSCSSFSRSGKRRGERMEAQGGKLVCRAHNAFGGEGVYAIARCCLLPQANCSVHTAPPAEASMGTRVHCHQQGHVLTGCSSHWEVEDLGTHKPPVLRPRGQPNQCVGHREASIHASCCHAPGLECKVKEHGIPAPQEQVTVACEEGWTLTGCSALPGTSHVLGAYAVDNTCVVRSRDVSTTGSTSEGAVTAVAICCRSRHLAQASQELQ

Structure (SMILES): O=C(c1ccc(C2(O)COC2)cc1)N1CCN(c2ccc(C(F)(F)F)nc2)CC1 [Example 217, (4-(3-hydroxyoxetan-3-yl)phenyl)(4-(6-(trifluoromethyl)pyridin-3-yl)piperazin-1-yl) methanone]
- % increase in LDL Uptake (1 μM test compound): 0%
- % increase in LDL Uptake (10 μM test compound): 5%
- % increase in LDL Uptake (30 μM test compound): 128%

Structure (SMILES): COC1(c2ccc(C(=O)N3CCC(c4ccc(C(F)(F)F)cc4)CC3)cc2)CCN(C(C)=O)CC1 [Example 158, 1-(4-methoxy-4-(4-(4-(4-(trifluoromethyl)phenyl)piperidine-1-carbonyl)phenyl)piperidin-1-yl)ethan-1-one]
- % increase in LDL Uptake (1 μM test compound): 0%
- % increase in LDL Uptake (10 μM test compound): 42%
- % increase in LDL Uptake (30 μM test compound): 0%

Structure (SMILES): O=C(c1ccc(C2(O)COC2)cc1)N1CCC(c2ccccc2)CC1 [Example 64, (4-(3-hydroxyoxetan-3-yl)phenyl)(4-phenylpiperidin-1-yl) methanone]
- % increase in LDL Uptake (1 μM test compound): 0%
- % increase in LDL Uptake (10 μM test compound): 13%
- % increase in LDL Uptake (30 μM test compound): 6%

Structure (SMILES): O=C(c1ccc(C2(O)CSC2)cc1)N1CCC(c2ccc(C(F)(F)F)cc2)CC1 [Example 145, (4-(3-hydroxythietan-3-yl)phenyl)(4-(4-(trifluoromethyl)phenyl)piperidin-1-yl)methanone]
- % increase in LDL Uptake (1 μM test compound): 2%
- % increase in LDL Uptake (10 μM test compound): 70%
- % increase in LDL Uptake (30 μM test compound): 0%

Structure (SMILES): Cc1ccc(C2=CC3CN(C(=O)c4ccc(C5(O)COC5)cc4)CC3C2)cc1 (stereo not drawn) [Example 130, (4-(3-hydroxyoxetan-3-yl)phenyl)(5-(p-tolyl)-3,3a,6,6a-tetrahydrocyclopenta[c]pyrrol-2(1H)-yl)methanone]
- % increase in LDL Uptake (1 μM test compound): −19%
- % increase in LDL Uptake (10 μM test compound): 20%
- % increase in LDL Uptake (30 μM test compound): 74%

Structure (SMILES): COC1(c2ccc(C(=O)N3CC4CC(OC)(c5ccc(C(F)(F)F)cc5)CC4C3)cc2)COC1 (stereo not drawn) [Example 92, (5-methoxy-5-(4-(trifluoromethyl)phenyl)hexahydrocyclopenta[c]pyrrol-2(1H)-yl)(4-(3-methoxyoxetan-3-yl)phenyl)methanone]
- % increase in LDL Uptake (1 μM test compound): −2%
- % increase in LDL Uptake (10 μM test compound): −8%
- % increase in LDL Uptake (30 μM test compound): 64%

Structure (SMILES): COC1(c2ccc(C(=O)N3CCCN(c4ccc(C(F)(F)F)cc4)CC3)cc2)COC1 [Example 185, (4-(3-methoxyoxetan-3-yl)phenyl)(4-(4-(trifluoromethyl)phenyl)-1,4-diazepan-1-yl)methanone]
- % increase in LDL Uptake (1 μM test compound): 0%
- % increase in LDL Uptake (10 μM test compound): 29%
- % increase in LDL Uptake (30 μM test compound): 109%

Structure (SMILES): COC1(c2ccc(C(=O)N3CCN(c4ccc(C(F)(F)F)cn4)CC3)cc2)COC1 [Example 218, (4-(3-methoxyoxetan-3-yl)phenyl)(4-(5-(trifluoromethyl)pyridin-2-yl)piperazin-1-yl)methanone]
- % increase in LDL Uptake (1 μM test compound): 0%
- % increase in LDL Uptake (10 μM test compound): 26%
- % increase in LDL Uptake (30 μM test compound): 85%

Structure (SMILES): O=C(c1ccc(C2(O)COC2)cc1)N1CCC(c2ccc(C(F)(F)F)cc2)C1 (stereo not drawn) [Example 102, (4-(3-hydroxyoxetan-3-yl)phenyl)(3-(4-(trifluoromethyl)phenyl)pyrrolidin-1-yl)methanone]
- % increase in LDL Uptake (1 μM test compound): 4%
- % increase in LDL Uptake (10 μM test compound): 31%
- % increase in LDL Uptake (30 μM test compound): 25%

Structure (SMILES): O=C(c1ccc(C2(O)COC2)cc1)N1CCc2cc(-c3ccc(C(F)(F)F)cc3)ccc21 [Example 107, (4-(3-hydroxyoxetan-3-yl)phenyl)(5-(4-(trifluoromethyl)phenyl)indolin-1-yl)methanone]
- % increase in LDL Uptake (1 μM test compound): 27%
- % increase in LDL Uptake (10 μM test compound): 0%
- % increase in LDL Uptake (30 μM test compound): 0%

Structure (SMILES): O=C(c1ccc(C2(O)COC2)cc1)N1CCC2(CC1)CCN(c1ccc(C(F)(F)F)cc1)CC2 [Example 99, (4-(3-hydroxyoxetan-3-yl)phenyl)(9-(4-(trifluoromethyl)phenyl)-3,9-diazaspiro[5.5]undecan-3-yl)methanone]
- % increase in LDL Uptake (1 μM test compound): 50%
- % increase in LDL Uptake (10 μM test compound): 0%
- % increase in LDL Uptake (30 μM test compound): 0%

Structure (SMILES): O=C(Nc1ccc(C2(O)COC2)cc1)N1CCC(c2ccc(C(F)(F)F)cc2)CC1 [Example 4, N-(4-(3-hydroxyoxetan-3-yl)phenyl)-4-(4-(trifluoromethyl)phenyl) piperidine-1-carboxamide]
- % increase in LDL Uptake (1 μM test compound): 38%
- % increase in LDL Uptake (10 μM test compound): 58%
- % increase in LDL Uptake (30 μM test compound): 77%

Structure (SMILES): COC1(c2ccc(C(=O)N3CCC(c4ccc(C(F)(F)F)cc4)CC3)cc2)CCNC1 (stereo not drawn) [Example 153, (4-(3-methoxypyrrolidin-3-yl)phenyl)(4-(4-(trifluoromethyl)phenyl)piperidin-1-yl)methanone]
- % increase in LDL Uptake (1 μM test compound): 0%
- % increase in LDL Uptake (10 μM test compound): 47%
- % increase in LDL Uptake (30 μM test compound): 46%

Structure (SMILES): O=C(c1ccc(C2(OCCO)COC2)cc1)N1CC2CN(c3ccc(C(F)(F)F)cc3)CC2C1 (stereo not drawn) [Example 12, (4-(3-(2-hydroxyethoxy)oxetan-3-yl)phenyl)(5-(4-(trifluoromethyl)phenyl)hexahydropyrrolo[3,4-c]pyrrol-2(1H)-yl)methanone]
- % increase in LDL Uptake (1 μM test compound): 21%
- % increase in LDL Uptake (10 μM test compound): 32%
- % increase in LDL Uptake (30 μM test compound): 34%

Structure (SMILES): O=C(c1ccc(C2(O)COC2)cc1)N1CCC2(CCN(c3ccc(C(F)(F)F)cc3)CC2)C1 [Example 186, (4-(3-hydroxyoxetan-3-yl)phenyl)(8-(4-(trifluoromethyl)phenyl)-2,8-diazaspiro[4.5]decan-2-yl)methanone]
- % increase in LDL Uptake (1 μM test compound): 17%
- % increase in LDL Uptake (10 μM test compound): 73%
- % increase in LDL Uptake (30 μM test compound): 31%

Structure (SMILES): O=C(c1ccc(C2(O)CS(=O)(=O)C2)cc1)N1CCC(c2ccc(C(F)(F)F)cc2)CC1 [Example 62, (4-(3-hydroxy-1,1-dioxidothietan-3-yl)phenyl)(4-(4-(trifluoromethyl)phenyl)piperidin-1-yl)methanone]
- % increase in LDL Uptake (1 μM test compound): 18%
- % increase in LDL Uptake (10 μM test compound): 10%
- % increase in LDL Uptake (30 μM test compound): 17%

Structure (SMILES): COC1(c2ccc(NC(=O)N3CC4CN(c5ccc(C(F)(F)F)cc5)CC4C3)cc2)COC1 (stereo not drawn) [Example 74, N-(4-(3-methoxyoxetan-3-yl)phenyl)-5-(4-(trifluoromethyl)phenyl) hexahydropyrrolo[3,4-c]pyrrole-2(1H)-carboxamide]
- % increase in LDL Uptake (1 μM test compound): 34%
- % increase in LDL Uptake (10 μM test compound): 42%
- % increase in LDL Uptake (30 μM test compound): 100%

Structure (SMILES): O=C(c1ccc(C2(O)COC2)cc1)N1CCC(c2cc(F)cc(C(F)(F)F)c2)CC1 [Example 14, (4-(3-fluoro-5-(trifluoromethyl)phenyl)piperidin-1-yl)(4-(3-hydroxyoxetan-3-yl)phenyl)methanone]
- % increase in LDL Uptake (1 μM test compound): 0%
- % increase in LDL Uptake (10 μM test compound): 20%
- % increase in LDL Uptake (30 μM test compound): 122%

Structure (SMILES): COC1(c2ccc(C(=O)N3CCC(c4ccc(C(F)(F)F)c(F)c4)CC3)cc2)COC1 [Example 38, (4-(3-fluoro-4-(trifluoromethyl)phenyl)piperidin-1-yl)(4-(3-methoxyoxetan-3-yl)phenyl)methanone]
- % increase in LDL Uptake (1 μM test compound): 43%
- % increase in LDL Uptake (10 μM test compound): 51%
- % increase in LDL Uptake (30 μM test compound): 25%

Structure (SMILES): CC(C)(CCCCCOC1(c2ccc(C(=O)N3CCC(c4ccc(C(F)(F)F)cc4)CC3)cc2)COC1)C(=O)O [Example 109, 2,2-dimethyl-7-((3-(4-(4-(4-(trifluoromethyl)phenyl)piperidine-1-carbonyl)phenyl)oxetan-3-yl)oxy)heptanoic acid]
- % increase in LDL Uptake (1 μM test compound): 5%
- % increase in LDL Uptake (10 μM test compound): 29%
- % increase in LDL Uptake (30 μM test compound): 31%

Structure (SMILES): COC1(c2ccc(NC(=O)N3CCC(c4ccc(C(F)(F)F)cc4)CC3)cc2)COC1 [Example 5, N-(4-(3-methoxyoxetan-3-yl)phenyl)-4-(4-(trifluoromethyl)phenyl) piperidine-1-carboxamide]
- % increase in LDL Uptake (1 μM test compound): 41%
- % increase in LDL Uptake (10 μM test compound): 76%
- % increase in LDL Uptake (30 μM test compound): 72%

Structure (SMILES): COC1(c2cccc(NC(=O)N3CC4CN(c5ccc(C(F)(F)F)cc5)CC4C3)c2)COC1 (stereo not drawn) [Example 183, N-(3-(3-methoxyoxetan-3-yl)phenyl)-5-(4-(trifluoromethyl)phenyl) hexahydropyrrolo[3,4-c]pyrrole-2(1H)-carboxamide]
- % increase in LDL Uptake (1 μM test compound): 32%
- % increase in LDL Uptake (10 μM test compound): 15%
- % increase in LDL Uptake (30 μM test compound): 88%

Structure (SMILES): O=C(c1cccc(C2(O)COC2)c1)N1CCc2scc(-c3ccc(C(F)(F)F)cc3)c2C1 [Example 176, (3-(3-hydroxyoxetan-3-yl)phenyl)(3-(4-(trifluoromethyl)phenyl)-6,7-dihydrothieno[3,2-c]pyridin-5(4H)-yl)methanone]
- % increase in LDL Uptake (1 μM test compound): 0%
- % increase in LDL Uptake (10 μM test compound): 12%
- % increase in LDL Uptake (30 μM test compound): 68%
